Experimental data: patent US9902702B2, “Spirocycloheptanes as inhibitors of rock” (BRISTOL-MYERS SQUIBB COMPANY, priority 2014, dated 2018)
pIC50: −log10 of the molar value.

Biological target: ROCK2 (Homo sapiens, UniProt O75116)
Assay: ROCK assay: phosphorylation of FITC peptide substrate, LABCHIP 3000 mobility shift
Assay type: biochemical
Conditions: 5 μM ATP, 1.5 μM peptide substrate; read-out: ROCK2 Activity (ROCK IC50 range)
Outline: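 Rho kinase variant phosphorylates 1.5 μM FITC-AHA-AKRRRLSSLRA-OH with 5 μM ATP in 20 mM HEPES pH 7.5, 20 mM MgCl2, 0.015% Brij-35, 4 mM DTT, DMSO <2%. EDTA stops the reaction, and phospho and non-phospho peptides are resolved by LabChip 3000 mobility shift. IC50 from dose-response curve fit.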

Sequence of ROCK2 (O75116 whole entry, species assumed): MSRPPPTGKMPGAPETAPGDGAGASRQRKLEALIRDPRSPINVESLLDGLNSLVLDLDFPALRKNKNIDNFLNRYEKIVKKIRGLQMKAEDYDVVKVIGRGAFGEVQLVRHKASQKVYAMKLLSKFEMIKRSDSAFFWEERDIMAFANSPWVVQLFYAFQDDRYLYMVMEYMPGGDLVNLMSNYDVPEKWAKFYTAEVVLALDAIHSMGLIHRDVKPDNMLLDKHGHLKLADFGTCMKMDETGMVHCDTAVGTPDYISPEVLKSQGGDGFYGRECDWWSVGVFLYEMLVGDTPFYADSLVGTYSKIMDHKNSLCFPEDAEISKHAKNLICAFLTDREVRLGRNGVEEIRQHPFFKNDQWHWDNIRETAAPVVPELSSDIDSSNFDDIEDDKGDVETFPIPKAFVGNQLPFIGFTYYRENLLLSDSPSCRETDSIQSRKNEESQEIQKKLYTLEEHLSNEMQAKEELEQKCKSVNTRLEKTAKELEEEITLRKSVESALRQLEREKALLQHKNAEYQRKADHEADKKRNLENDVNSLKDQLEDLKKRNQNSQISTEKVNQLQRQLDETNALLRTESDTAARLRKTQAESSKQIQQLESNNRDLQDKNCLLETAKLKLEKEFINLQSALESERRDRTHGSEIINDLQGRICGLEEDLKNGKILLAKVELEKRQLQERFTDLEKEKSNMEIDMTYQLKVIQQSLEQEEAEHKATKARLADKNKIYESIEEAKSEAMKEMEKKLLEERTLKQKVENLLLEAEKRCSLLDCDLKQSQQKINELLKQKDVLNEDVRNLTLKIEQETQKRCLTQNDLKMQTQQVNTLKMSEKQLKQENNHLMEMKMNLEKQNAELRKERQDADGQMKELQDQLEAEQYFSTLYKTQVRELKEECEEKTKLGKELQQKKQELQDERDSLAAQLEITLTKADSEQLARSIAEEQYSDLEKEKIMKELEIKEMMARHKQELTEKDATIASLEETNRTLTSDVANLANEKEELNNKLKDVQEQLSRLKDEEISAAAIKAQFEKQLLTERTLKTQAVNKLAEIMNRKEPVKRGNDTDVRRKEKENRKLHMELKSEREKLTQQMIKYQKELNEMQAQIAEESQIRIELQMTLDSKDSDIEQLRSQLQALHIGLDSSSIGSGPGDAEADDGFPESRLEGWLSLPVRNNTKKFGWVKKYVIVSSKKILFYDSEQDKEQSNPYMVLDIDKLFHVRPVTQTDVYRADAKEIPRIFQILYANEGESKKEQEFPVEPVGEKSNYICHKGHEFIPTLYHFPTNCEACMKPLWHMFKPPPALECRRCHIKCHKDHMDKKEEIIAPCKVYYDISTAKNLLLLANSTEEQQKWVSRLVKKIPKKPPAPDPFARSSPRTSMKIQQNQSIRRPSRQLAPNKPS

Row | pIC50 | Structure (SMILES)
1 | 5.68 to 7.00 | [H][C@]1(c2n[nH]c(=O)c3ccccc32)C[C@]2(C[C@@H](NC(=O)c3cc4n(n3)CCNC4=O)C2)C1 (stereo partly drawn) [Example 415, 4-oxo-N-((aR)-6-(4-oxo-3,4-dihydrophthalazin-1-yl)spiro[3,3]heptan-2-yl)-4,5,6,7-tetrahydropyrazolo[1,5-a]pyrazine-2-carboxamide]
2 | 5.68 to 7.00 | O=C(N[C@H]1CC2(C1)C[C@H](c1n[nH]c(=O)c3ccccc31)C2)c1ccn(CC(F)(F)F)n1 (single isomer, unassigned) [Example 18]
3 | 8.70 to 9.70 | COCCOc1ccc2c(C(=O)NC3CC4(C3)CC(c3n[nH]c(=O)c5ccccc35)C4)cnn2c1 (stereo not drawn) [Example 179, 6-(2-methoxyethoxy)-N-((αR)-6-(4-oxo-3,4-dihydrophthalazin-1-yl)spiro[3.3]heptan-2-yl)pyrazolo[1,5-α]pyridine-3-carboxamide]
4 | 8.70 to 9.70 | [H][C@]1(c2n[nH]c(=O)c3ccccc32)C[C@]2(C[C@@H](NC(=O)c3cnc4cc(OCc5ccccc5)ccn34)C2)C1 (stereo partly drawn) [Example 384, 7-(benzyloxy)-N-((aR)-6-(4-oxo-3,4-dihydrophthalazin-1-yl)spiro[3.3]heptan-2-yl)imidazo[1,2-a]pyridine-3-carboxamide]
5 | 8.70 to 9.70 | CC1(C)CN(CCOc2ccc3c(C(=O)NC4CC5(C4)CC(c4n[nH]c(=O)c6ccccc46)C5)cnn3c2)CCO1 [Example 187, 6-(2-(2,2-dimethylmorpholino)ethoxy)-N-((aR)-6-(4-oxo-3,4-dihydrophthalazin-1-yl)spiro[3.3]heptan-2-yl)pyrazolo[1,5-a]pyridine-3-carboxamide]
6 | 8.70 to 9.70 | [H][C@]1(c2n[nH]c(=O)c3ccccc32)C[C@]2(C[C@@H](NC(=O)c3cnc4cc(N5CCN(C)CC5)ccn34)C2)C1 (stereo partly drawn) [Example 378]
7 | 8.70 to 9.70 | O=C(NC1CC2(C1)CC(c1n[nH]c(=O)c3ccccc13)C2)c1cnn2cc(OC3CCOCC3)ccc12 (stereo not drawn) [Example 135, N-((αR)-6-(4-oxo-3,4-dihydrophthalazin-1-yl)spiro[3.3]heptan-2-yl)-6-((tetrahydro-2H-pyran-4-yl)oxy)pyrazolo[1,5-α]pyridine-3-carboxamide]
8 | 8.30 to 8.70 | COc1ccc(-c2ccc3c(C(=O)NC4CC5(C4)CC(c4n[nH]c(=O)c6ccccc46)C5)nn(CC(C)(C)O)c3c2)cc1 (stereo not drawn) [Example 153, 1-(2-hydroxy-2-methylpropyl)-6-(4-methoxyphenyl)-N-((αR)-6-(4-oxo-3,4-dihydrophthalazin-1-yl)spiro[3.3]heptan-2-yl)-1H-indazole-3-carboxamide]
9 | 8.70 to 9.70 | [H][C@]1(c2n[nH]c(=O)c3ccccc32)C[C@]2(C[C@@H](NC(=O)c3cnn4cc(OCCO)ccc34)C2)C1 (stereo partly drawn) [Example 181]
10 | 7.00 to 7.82 | [H][C@]1(c2n[nH]c(=O)c3ccccc32)C[C@]2(C[C@@H](NC(=O)c3ccc(-c4noc(C)n4)cc3)C2)C1 (stereo partly drawn) [Example 360, 4-(5-methyl-1,2,4-oxadiazol-3-yl)-N-((aR)-6-(4-oxo-3,4-dihydrophthalazin-1-yl)spiro[3.3]heptan-2-yl)benzamide]
11 | 8.30 to 8.70 | O=C(NC1CC2(C1)CC(c1n[nH]c(=O)c3ccccc13)C2)c1cnn2cc(N3CCOCC3)ccc12 [Example 76, 6-morpholino-N-((aR)-6-(4-oxo-3,4-dihydrophthalazin-1-yl)spiro[3.3]heptan-2-yl)pyrazolo[1,5-a]pyridine-3-carboxamide]
12 | 7.82 to 8.29 | O=c1[nH]nc([C@H]2CC3(C[C@H](Nc4nnc(-c5ccccc5)s4)C3)C2)c2ccccc12 (stereo partly drawn) [Example 43, 4-((aR)-6-((5-Phenyl-1,3,4-thiadiazol-2-yl)amino)spiro[3.3]heptan-2-yl)phthalazin-1(2H)-one(2H)-one]
13 | 5.68 to 7.00 | Cc1nnc(NC(=O)C2CC3(C2)CC(c2n[nH]c(=O)c4ccccc24)C3)s1 (stereo not drawn) [Example 48, N-(5-methyl-1,3,4-thiadiazol-2-yl)-6-(4-oxo-3,4-dihydrophthalazin-1-yl)spiro[3.3]heptane-2-carboxamide]
14 | 7.82 to 8.29 | [H][C@]1(c2n[nH]c(=O)c3ccccc32)C[C@]2(C[C@@H](NC(=O)c3cnc4c(C#N)cccn34)C2)C1 (stereo partly drawn) [Example 380, 8-cyano-N-((aR)-6-(4-oxo-3,4-dihydrophthalazin-1-yl)spiro[3.3]heptan-2-yl)imidazo[1,2-a]pyridine-3-carboxamide]
15 | 8.30 to 8.70 | O=C(NC1CC2(C1)CC(c1n[nH]c(=O)c3ccccc13)C2)c1cnn2cc(CCCN3CCC(F)(F)CC3)ccc12 [Example 196, 6-(3-(4,4-difluoropiperidin-1-yl)propyl)-N-((aR)-6-(4-oxo-3,4-dihydrophthalazin-1-yl)spiro[3.3]heptan-2-yl)pyrazolo[1,5-a]pyridine-3-carboxamide]
16 | 7.82 to 8.29 | [H][C@]1(c2n[nH]c(=O)c3ccccc32)C[C@]2(C[C@@H](NC(=O)c3cc4nccnc4s3)C2)C1 (stereo partly drawn) [Example 303, N-((aR)-6-(4-oxo-3,4-dihydrophthalazin-1-yl)spiro[3.3]heptan-2-yl)thieno[2,3-b]pyrazine-6-carboxamide]
17 | 7.82 to 8.29 | [2H]C([2H])([2H])n1cc(-c2ccc(C(=O)N[C@H]3CC4(C3)C[C@H](c3n[nH]c(=O)c5ccccc53)C4)cc2F)cn1 (stereo partly drawn) [Example 427, 3-fluoro-4-(1-d3-methyl-1H-pyrazol-4-yl)-N-((aR)-6-(4-oxo-3,4-dihydrophthalazin-1-yl)spiro[3.3]heptan-2-yl)benzamide]
18 | 8.70 to 9.70 | [H][C@]1(c2n[nH]c(=O)c3ccccc32)C[C@]2(C[C@@H](NC(=O)c3cnc4cc(-c5cnn(C)c5)ccn34)C2)C1 (stereo partly drawn) [Example 440, 7-(1-methyl-1H-pyrazol-4-yl)-N-((aR)-6-(4-oxo-3,4-dihydrophthalazin-1-yl)spiro[3.3]heptan-2-yl)imidazo[1,2-a]pyridine-3-carboxamide]
19 | 7.00 to 7.82 | CCn1nccc1C(=O)NC1CC2(C1)CC(c1n[nH]c(=O)c3ccccc13)C2 [Example 285, 1-ethyl-N-((aR)-6-(4-oxo-3,4-dihydrophthalazin-1-yl)spiro[3.3]heptan-2-yl)-1H-pyrazole-5-carboxamide]
20 | 7.82 to 8.29 | CC(C)(O)Cn1nc(C(=O)NC2CC3(C2)CC(c2n[nH]c(=O)c4ccccc24)C3)c2ccc(/C=C\C3CC3)cc21 (stereo not drawn) [Example 151, 6-((Z)-2-cyclopropylvinyl)-1-(2-hydroxy-2-methylpropyl)-N-((αR)-6-(4-oxo-3,4-dihydrophthalazin-1-yl)spiro[3.3]heptan-2-yl)-1H-indazole-3-carboxamide]
21 | 8.30 to 8.70 | O=C(NC1CC2(C1)CC(c1n[nH]c(=O)c3ccccc13)C2)c1cnn2cc(N3CCC(F)(F)CC3)ccc12 [Example 82, 6-(4,4-difluoropiperidin-1-yl)-N-((aR)-6-(4-oxo-3,4-dihydrophthalazin-1-yl)spiro[3.3]heptan-2-yl)pyrazolo[1,5-a]pyridine-3-carboxamide]
22 | 8.30 to 8.70 | Cc1nc(N2CCC3CC32)sc1C(=O)NC1CC2(C1)CC(c1n[nH]c(=O)c3ccccc13)C2 [Example 40, rel-2-[(1S,5R)-2-azabicyclo[3.1.0]hexan-2-yl]-4-methyl-N-[(aR)-6-(4-oxo-3,4-dihydrophthalazin-1-yl)spiro[3.3]heptan-2-yl]-1,3-thiazole-5-carboxamide]
23 | 7.82 to 8.29 | [H][C@]1(c2n[nH]c(=O)c3ccccc32)C[C@]2(C[C@@H](NC(=O)c3ccc4c(c3)ncn4C)C2)C1 (stereo partly drawn) [Example 317, 1-methyl-N-((aR)-6-(4-oxo-3,4-dihydrophthalazin-1-yl)spiro[3.3]heptan-2-yl)-1H-benzo[d] imidazole-5-carboxamide]
24 | 8.30 to 8.70 | O=C(N[C@H]1CC2(C1)C[C@H](c1n[nH]c(=O)c3ccccc31)C2)c1cnn2cc(CCCN3CCOCC3)ccc12 (stereo partly drawn) [Example 191, 6-(3-morpholinopropyl)-N-((aR)-6-(4-oxo-3,4-dihydrophthalazin-1-yl)spiro[3.3]heptan-2-yl)pyrazolo[1,5-a]pyridine-3-carboxamide]
25 | 7.82 to 8.29 | [H][C@]1(c2n[nH]c(=O)c3ccccc32)C[C@]2(C[C@@H](NC(=O)c3ccc(-c4cnn(C)c4)nc3)C2)C1 (stereo partly drawn) [Example 425, 6-(1-methyl-1H-pyrazol-4-yl)-N-((aR)-6-(4-oxo-3,4-dihydrophthalazin-1-yl)spiro[3.3]heptan-2-yl)nicotinamide]
26 | 7.82 to 8.29 | CS(=O)(=O)c1ccn2c(C(=O)N[C@H]3CC4(C3)C[C@H](c3n[nH]c(=O)c5ccccc53)C4)cnc2c1 (stereo partly drawn) [Example 465, 7-(methylsulfonyl)-N-((aR)-6-(4-oxo-3,4-dihydrophthalazin-1-yl)spiro[3.3]heptan-2-yl)imidazo[1,2-a]pyridine-3-carboxamide]
27 | 7.00 to 7.82 | O=C(NC1CC2(C1)CC(c1n[nH]c(=O)c3ccccc13)C2)c1cnn2cc(-n3ccc(=O)cc3)ccc12 (stereo not drawn) [Example 180, N-((αR)-6-(4-oxo-3,4-dihydrophthalazin-1-yl)spiro[3.3]heptan-2-yl)-6-(4-oxopyridin-1(4H)-yl)pyrazolo[1,5-α]pyridine-3-carboxamide]
28 | 7.00 to 7.82 | Cc1nc(NC2CC2)sc1C(=O)NC1CC2(C1)CC(c1n[nH]c(=O)c3ccccc13)C2 [Example 42, 2-(cyclopropylamino)-4-methyl-N-[(aR)-6-(4-oxo-3,4-dihydrophthalazin-1-yl)spiro[3.3]heptan-2-yl]-1,3-thiazole-5-carboxamide]

Row | Structure (SMILES) | pIC50
29 | O=C(N[C@H]1CC2(C1)C[C@H](c1n[nH]c(=O)c3ccccc31)C2)c1cnn2cc(OC[C@@H](O)C(F)(F)F)ccc12 (stereo partly drawn) [Example 119, N-((aR)-6-(4-oxo-3,4-dihydrophthalazin-1-yl)spiro[3.3]heptan-2-yl)-6-(3,3,3-trifluoro-2-hydroxypropoxy)pyrazolo[1,5-a]pyridine-3-carboxamide] | 8.70 to 9.70
30 | O=C(N[C@H]1CC2(C1)C[C@H](c1n[nH]c(=O)c3ccccc31)C2)c1cnn2cc(O[C@@H]3CCOC3)ccc12 (stereo partly drawn) [Example 122, N-((aR)-6-(4-oxo-3,4-dihydrophthalazin-1-yl)spiro[3.3]heptan-2-yl)-6-((tetrahydrofuran-3-yl)oxy)pyrazolo[1,5-a]pyridine-3-carboxamide] | 8.70 to 9.70
